Results reported in patent publication US8664382B2, “Antibacterial compositions comprising metal phthalocyanine analogues” (Molteni Therapeutics S.r.l., priority 2002, dated 2014).

Columns and labels:
E. coli ATCC 25922 = assay: Photoinactivation (biocidal activity) of E. coli cell suspension after red light irradiation; type: cell-based; conditions: for concentration able to sterilize completely the cell suspension: in combination with EDTA 0.5 mM, 100 mW/cm2 red light (FIG. 2, FIG. 5)
Method: These microorganisms were used in the experiments in a stationary phase of growth.
(§1) The experimental protocol was the following:
(§2) The cell suspensions were diluted in an appropriate medium. Addition of an aliquot of stock solution of the composition to be tested to the cell suspension up to the intended final concentrations. Incubation in dark at 37° C. for 5 minutes. Irradiation (650≦λ≦850 nm; 50÷100 mW/cm2; 1÷10 minutes) of cell suspension for each dilution of the photosensitising composition.

[1] = tested on: Pseudomonas aeruginosa PAO-1; assay: Photoinactivation (biocidal activity) of Pseudomonas aeruginosa cell suspension after red light irradiation; type: cell-based
Method: The usefulness of the pharmaceutical compositions of the present invention has been evaluated through their activity against the Gram negative micro-organisms Pseudomonas aeruginosa PAO-1 and E. coli ATCC 25922. These microorganisms were used in the experiments in a stationary phase of growth.
as §1, §2

Row | Substance | concentration able to sterilize completely the cell suspension (E. coli ATCC 25922; 5 min incubation) | photosensitizer concentration necessary to sterilize the cell suspension (E. coli ATCC 25922; without EDTA, 5 min incubation, 100 mW/cm2 red light (FIG. 5a)) | reduction of the initial population (E. coli ATCC 25922; compound alone, no chelating agent, 5 min incubation, irradiation 100 mW/cm2 red light (FIG. 1)) | complete sterilization of the cell suspension (E. coli ATCC 25922; compound alone, no chelating agent, irradiation 100 mW/cm2 red light (FIG. 1)) | concentration up to which not active (photoinactivation) ([1]; compound alone, no chelating agent, 100 mW/cm2 red light (FIG. 3)) | reduction of the population ([1]; with EDTA 0.5 mM, 1 μM concentration, 100 mW/cm2 red light (FIG. 3a)) | concentration able to sterilize the cell suspension ([1]; with EDTA 0.5 mM, 100 mW/cm2 red light (FIG. 3a))
1 | {2(3),9(10),16(17),23(24)-tetra[1,3-bis-(trimethylammonium)propyl-2-oxy]zinc(II) phthalocyanine}octaiodide [compound 2] | 1 µM | 20 µM |  |  |  |  | 
2 | {2,3,9,10,16,17,23,24-octa[3-(N,N,N-trimethylammonium)phenoxy]zinc(II) phthalocyanine}octaiodide [compound 1] | 1 µM |  | 4 log | cannot be obtained | > 40 µM | 5 log | 5 µM
